Measurements reported in paper PMC8385029 (Scientific Reports, 2021).

Tests used:
[1] = biological target: T1, SyAcnB (Synechocystis sp. PCC 6803 aconitase B) (Synechocystis sp. PCC 6803, UniProt P74582); assay: cis-aconitate formation, A240; type: biochemical; details: read-out: % residual activity at 5 mM
T1 construct: gene acnB; full-length, synthetic gene in pGEX6P-1 (BamHI-XhoI), GST tag (elution with glutathione, no cleavage described), E. coli DH5alpha
T1 sequence (P74582 1-868): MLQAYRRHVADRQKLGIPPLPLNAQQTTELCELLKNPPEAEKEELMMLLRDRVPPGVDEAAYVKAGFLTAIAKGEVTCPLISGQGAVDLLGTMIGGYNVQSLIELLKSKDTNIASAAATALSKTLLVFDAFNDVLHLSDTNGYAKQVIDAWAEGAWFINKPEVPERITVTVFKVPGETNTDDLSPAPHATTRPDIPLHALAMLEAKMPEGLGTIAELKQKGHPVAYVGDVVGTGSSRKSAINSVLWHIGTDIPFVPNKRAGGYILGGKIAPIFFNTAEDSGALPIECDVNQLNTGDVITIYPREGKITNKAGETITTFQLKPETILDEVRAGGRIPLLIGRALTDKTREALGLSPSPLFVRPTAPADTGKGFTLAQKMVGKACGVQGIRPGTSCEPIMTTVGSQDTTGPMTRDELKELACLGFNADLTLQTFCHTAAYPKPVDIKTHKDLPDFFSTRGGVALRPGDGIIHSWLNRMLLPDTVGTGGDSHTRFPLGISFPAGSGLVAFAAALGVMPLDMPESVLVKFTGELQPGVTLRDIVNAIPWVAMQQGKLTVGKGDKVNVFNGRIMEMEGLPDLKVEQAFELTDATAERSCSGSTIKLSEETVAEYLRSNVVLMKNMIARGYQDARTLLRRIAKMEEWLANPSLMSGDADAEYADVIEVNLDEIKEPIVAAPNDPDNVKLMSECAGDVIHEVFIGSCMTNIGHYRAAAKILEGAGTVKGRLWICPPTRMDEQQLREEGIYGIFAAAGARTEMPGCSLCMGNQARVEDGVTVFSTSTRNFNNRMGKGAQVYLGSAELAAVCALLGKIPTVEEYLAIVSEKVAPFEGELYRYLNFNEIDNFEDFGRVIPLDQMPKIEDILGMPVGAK

[2] = substrate: O=C(O)CC(O)(CC(=O)O)C(=O)O; assay: purified protein; details: Tris-HCl pH 7.7, 45 °C; reactivated holo-enzyme
[3] = substrate: O=C(O)CC(C(=O)O)C(O)C(=O)O; assay: cis-aconitate formation, A240; type: biochemical, Synechocystis sp. PCC 6803; details: Tris-HCl pH 8.0, 53 °C; reactivated holo-enzyme; DL-isocitrate used

Molecule: N[C@@H](CCC(=O)O)C(=O)O [L-glutamate]
- remaining activity at 5000 µM [1]: 85%

Molecule: CC(=O)C(=O)O [pyruvate]
- remaining activity at 5000 µM [1]: 69%

Molecule: NC(=O)CC[C@H](N)C(=O)O [L-glutamine]
- remaining activity at 5000 µM [1]: 81%

Molecule: O=C(O)CCC(=O)C(=O)O [2-OG]
- remaining activity at 5000 µM [1]: 72%

Molecule: N[C@@H](CC(=O)O)C(=O)O [L-aspartate]
- remaining activity at 5000 µM [1]: 84%

B1: SyAcnB (Synechocystis sp. PCC 6803 aconitase B) (Synechocystis sp. PCC 6803 substr. Kazusa) (protein)
chain: T1 sequence (P74582 1-868)
notes: full-length, synthetic gene in pGEX6P-1 (BamHI-XhoI), GST tag (elution with glutathione, no cleavage described), E. coli DH5alpha
- Km [2]: 1130 ± 40 µM
- kcat [2]: 9.12 ± 0.14 s⁻¹
- Km [3]: 1540 ± 170 µM
- kcat [3]: 16.67 ± 0.34 s⁻¹
